Data taken from patent US20050277664A1, “Monoamine neurotransmitter re-uptake inhibitor for the inhibition of beta-amyloid generation” (Boehringer Ingelheim International GmbH, priority 2004, published 2005).
Like-named read-outs stand apart in the source and are kept apart here.

Experiments:
[1] = tested on: Aβ40 secretion by U373 astrocytoma cells expressing human wtAPP695; assay: Aβ secretion assay, Aβ40 (sandwich ELISA of cell supernatant); assay type: cell-based; details: for inhibition at 1.56 µM / inhibition at 3.12 µM / inhibition at 6.25 µM / inhibition at 12.5 µM / inhibition at 25 µM / inhibition at 50 µM: Homo sapiens, U373 MG, 4 h, read-out: Aβ40 Secretion, inhibition (−) or stimulation (+); for generation/secretion of Aβ40 (result in words): dose response
Method: (§1) Cell culture and drug treatment: U373 astrocytoma cells expressing human wtAPP695 were used to test the compound of formula IA for Aβ lowering potential. Cells were cultured in 96 well plates in DMEM medium, additionally supplemented with 10% FCS and 1% glutamine, until they have grown to a confluent cell layer. The cells were then incubated for 17 hours in the presence of the compound of formula IA in DMEM medium. Afterwards, 100 μl of the supernatant had been removed and measured with the ELISA as described below to determine the Aβ42 peptide concentrations. The cells were washed, incubated again for 4 hours with the compound, before measuring the Aβ40 levels. AlamarBlue assays (Serotec, Oxford, UK) were conducted to determine cytotoxicity.
(§2) Monoclonal 6E10 against Aβ1-17 (Signet Laboratories, Inc., Dedham, Mass., USA) was used to capture Aβ40; SGY 3160 against Aβ1-16 (Mayo Medical Ventures, Rochester, Minn., USA) to capture Aβ42. Both antibodies were diluted in PBS at a concentration of 8 μg/ml to coat a 96 well plate. Blocking was completed with 1% Block ACE (blocking reagent) (Dainippon Seiyaku, Asaka, Japan) in PBS for 2 hrs. The plates were then washed with PBST and the cell supernatants, diluted 1:1.5 in EC buffer (0.1 M NaH2PO4, 0.1 M Na2HPO4, 2 mM EDTA, 0.4 M NaCl, 0.2% BSA, 0.05% CHAPS, 0.4% Block ACE, 0.05% NaN3 pH 7.0) have been added into the wells, before the plates were stored at 4° C. over night. Detector antibodies (alkaline phosphatase-coupled ROβ40 and ROβ42 against Aβ40 and Aβ42, respectively), were loaded onto the wells at 0.1 μg/ml in ACE Block for 2 hrs. The reporter system used was the Tropix ELISA-Light chemiluminescent detection system (Applied Biosystems (Tropix), Bedford, Mass., USA).
(§3) The compound of formula IA has been tested in an Aβ secretion assay. In this particular in vitro assay, the astrocytoma cell line U373 that stably over-expresses wild-type human amyloid precursor protein (APP) has been exposed to this compound. APP is proteolytically cleaved by 2 enzymes, BACE and γ secretase, to generate the Aβ peptides. Because of a flexible APP cleavage site of γ secretase, several Aβ isoforms are generated, majorly Aβ40 and Aβ42. The rate of Aβ generation/secretion into the medium in the presence or absence of the compound of formula IA in different concentrations has been measured by ELISA (Table 1). The % inhibition (−) or stimulation (+) has been determined in 2 independent experiments.

[2] = tested on: cerebral Aβ42 levels in APPtg mice; assay: Cerebral Aβ42 levels in APPtg mice after oral treatment; assay type: in vivo; details: for Level of Aβ42, reduction (−) and/or stimulation (+) of cerebral Aβ levels: per os
Method: (§4) APPtg mice at 3 to 4 months of age were used. A compound of formula (IA) was prepared and administered in a suspension of 0.5% Tylose solution.
(§5) Controls were treated with Tylose only. Each group consisted of 12 or 13 mice with equal numbers of each sex. In the short term study, the animals were treated for the time period of 2.5 days. Twice a day, a dose of 3 mg/kg was applied with interruption times of 11.5-12.5 hours. On the last day (day of sacrifice), one dose of 3 mg/kg was administered and the mice were sacrificed 5.5 hours later. […] In a second long term four weeks study, 3 mg/kg/day of compound of formula IA were administered, subdivided into two subdoses, with an interruption time of 10-12 hours during the day. Each version of the in vivo experiments has been performed once.
(§6) The murine brains were rapidly removed from the skull and divided along the medial fissure. The cerebellum was removed before each half was quickly frozen down on a metal plate that had been cooled down on dry ice. Brains were placed in Eppendorf tubes, frozen in liquid nitrogen, and stored at −80° C. until needed for Aβ extractions or compound measurements.
(§7) Brains were thawed on ice. Mouse hemibrains were extracted in a homogenisation buffer consisting of 20 mM Tris (pH 8.5), 0.2% Triton X-100, and complete proteinase inhibitor with EDTA (Roche Diagnostics GmbH, Mannheim, Germany). The brains were homogenized in a volume […] 5 times the weight of the brain (mg) using a 2 ml Douncer Homogenator (B. Braun, Melsungen, Germany). This was carried out 12 times with a Stempel L, followed by a Stempel S. The homogenates were then ultracentrifuged in Ultracentrifuge tubes (Beckman, CA, USA) at 200.000 g (UZ Sorvall RC 120 GX, KENDRO Laboratories Products GmbH, Hanau, Germany) at 4° C. for 1 hour. The post nuclear supernatants containing the soluble Aβ were collected and measured in a Sandwich ELISA (s.a.).
(§8) Statistical analyses of data was done by one-sided t tests for differences between treatment and control group to determine the p values.

[3] = tested on: cerebral Aβ40 levels in APPtg mice; assay: Cerebral Aβ40 levels in APPtg mice after oral treatment; assay type: in vivo; details: for Level of Aβ40, reduction (−) and/or stimulation (+) of cerebral Aβ levels: per os
Method: as §4, §5, §6, §7, §8

[4] = tested on: Aβ42 secretion by U373 astrocytoma cells expressing human wtAPP695; assay: Aβ secretion assay, Aβ42 (sandwich ELISA of cell supernatant); assay type: cell-based; details: for inhibition at 1.56 µM / inhibition at 3.12 µM / inhibition at 6.25 µM / inhibition at 12.5 µM / inhibition at 25 µM / inhibition at 50 µM: Homo sapiens, U373 MG, 17 h, read-out: Aβ42 Secretion, inhibition (−) or stimulation (+); for generation/secretion of Aβ42 (result in words): dose response
Method: as §1, §2, §3

[5] = Exp. 1, further 4 hours incubation
[6] = Exp. 2, further 4 hours incubation

Q: For `CCOC[C@H]1C2CCC(C[C@@H]1c1ccc(Cl)c(Cl)c1)N2C` (some centres unmarked) [Formula IA], which inhibition at 1.56 µM [1, 5] is on record?
A: 3.2%

Q: What about the inhibition at 1.56 µM [1, 6] of the same compound?
A: -16%

Q: And the inhibition at 3.12 µM [1, 5]?
A: 6.1%

Q: And the inhibition at 3.12 µM [1, 6]?
A: -8%

Q: What about the inhibition at 6.25 µM [1, 5] of the same compound?
A: 20.9%

Q: What about the inhibition at 6.25 µM [1, 6] of the same compound?
A: 2.8%

Q: And the inhibition at 12.5 µM [1, 5]?
A: 33.9%

Q: And the inhibition at 12.5 µM [1, 6]?
A: 24.8%

Q: What about the inhibition at 25 µM [1, 5] of the same compound?
A: 50.1%

Q: What about the inhibition at 25 µM [1, 6] of the same compound?
A: 50.3%

Q: And the inhibition at 50 µM [1, 5]?
A: 81.3%

Q: And the inhibition at 50 µM [1, 6]?
A: 88.5%

Q: What about the “generation/secretion of Aβ40 (result in words)” value ([1]; FIG. 1) of the same compound?
A: increasing inhibition of Aβ40 with an increasing concentration

Q: What about the “generation/secretion of Aβ40 (result in words)” value ([1]; FIG. 1, listed as formula 1A) of the same compound?
A: inhibited

Q: And the “reduction for Aβ42” value ([2]; four weeks study, 3 mg/kg/day in two subdoses)?
A: 27.4%

Q: What about the “Level of Aβ42, reduction (−) and/or stimulation (+) of cerebral Aβ levels” value (from here on “Level of Aβ42, reduction”) ([2]; 2 weeks, 1 × 3.0 mg/kg/day, mean ± SEM) of the same compound?
A: −16.3 ± 3.7 %

Q: And the “Level of Aβ42, reduction” value ([2]; 4 weeks, 2 × 1.5 mg/kg/day, mean ± two-sided confidence interval)?
A: −27.4 ± 27.2° %

Q: What about the “Level of Aβ42, reduction” value ([2]; 2.5 days, 2 × 3.0 mg/kg day 1, 2, 1 × 3.0 mg/kg day 3, mean ± SEM vs Tylose control) of the same compound?
A: +5.1 ± 3.0%

Q: What about the “increase of Aβ42 levels” value ([2]; short term in vivo experiment (2.5 days, 3 mg/kg twice a day), p=0.9136) of the same compound?
A: 5.1%

Q: And the “reduction of the cerebral Aβ42 levels” value ([2]; two weeks treatment, 3 mg/kg once a day, p=0.0096)?
A: 16.3%

Q: And the “Level of Aβ40, reduction (−) and/or stimulation (+) of cerebral Aβ levels” value (shortened to “Level of Aβ40, reduction”) ([3]; APPtg mice, 2 weeks, 1 × 3.0 mg/kg/day, mean ± SEM)?
A: −18.6 ± 7.1 %

Q: And the “Level of Aβ40, reduction” value ([3]; APPtg mice, 4 weeks, 2 × 1.5 mg/kg/day, mean ± two-sided confidence interval)?
A: −17.2 ± 8.7° %

Q: And the “Level of Aβ40, reduction” value ([3]; APPtg mice, 2.5 days, 2 × 3.0 mg/kg day 1, 2, 1 × 3.0 mg/kg day 3, mean ± SEM vs Tylose control)?
A: −12.4 ± 1.9 %

Q: And the “reduction of Aβ40” value ([3]; four weeks study, 3 mg/kg/day in two subdoses, APPtg mice)?
A: 17.2%

Q: And the “Aβ40 levels in vivo (result in words)” value ([3]; in vivo test, FIG. 3 (short term experiment))?
A: statistically significant reduction

Q: What about the “reduction of the Aβ40 levels” value ([3]; short term in vivo experiment (2.5 days, 3 mg/kg twice a day), APPtg mice, p=0.0003) of the same compound?
A: 12.4%

Q: What about the “reduction of the cerebral Aβ40 levels” value ([3]; two weeks treatment, 3 mg/kg once a day, APPtg mice, p=0.024) of the same compound?
A: 18.6%

Q: What about the inhibition at 1.56 µM ([4]; Exp. 1, 17 hours incubation) of the same compound?
A: 3.5%

Q: And the inhibition at 1.56 µM ([4]; Exp. 2, 17 hours incubation)?
A: -4.5%

Q: And the inhibition at 3.12 µM ([4]; Exp. 1, 17 hours incubation)?
A: 6.5%

Q: What about the inhibition at 3.12 µM ([4]; Exp. 2, 17 hours incubation) of the same compound?
A: -16.1%

Q: And the inhibition at 6.25 µM ([4]; Exp. 1, 17 hours incubation)?
A: 4.1%

Q: What about the inhibition at 6.25 µM ([4]; Exp. 2, 17 hours incubation) of the same compound?
A: 12.1%

Q: What about the inhibition at 12.5 µM ([4]; Exp. 1, 17 hours incubation) of the same compound?
A: 17.8%

Q: And the inhibition at 12.5 µM ([4]; Exp. 2, 17 hours incubation)?
A: 23.2%

Q: What about the inhibition at 25 µM ([4]; Exp. 1, 17 hours incubation) of the same compound?
A: 24.5%

Q: And the inhibition at 25 µM ([4]; Exp. 2, 17 hours incubation)?
A: 48.9%

Q: And the inhibition at 50 µM ([4]; Exp. 1, 17 hours incubation)?
A: 26.6%

Q: And the inhibition at 50 µM ([4]; Exp. 2, 17 hours incubation)?
A: 62.3%

Q: And the “generation/secretion of Aβ42 (result in words)” value ([4]; FIG. 2)?
A: increasing inhibition of Aβ42 with an increasing concentration

Q: And the “generation/secretion of Aβ42 (result in words)” value ([4]; FIG. 2, listed as formula 1A)?
A: inhibited
